Results on eleven compounds are retold here after PubChem BioAssay AID743496 (The Scripps Research Institute Molecular Screening Center, 2014).

Broadly, the EC50 is the concentration needed to bring the measured effect to its halfway point.

The structures appear in SMILES notation. Active and inactive are the calls of the source. How the calls were made is not given here.

For the test, the system named is Ga16-expressing cells, calcium fluorescence, counterscreen for TAAR1 agonists. Put plainly: nonselective Ga16 agonists, potency, SAR follow-up, counter-screen for TAAR1 agonist project, cell-based, fluorescence, dose response, MedChem round 1 (AID 743496). A general note: The purpose of a counterscreen is to sort out artefacts and off-target activity.
With `O=C(CCN1CCC(O)(c2ccccc2)C1)c1ccc2c(c1)OCCO2` (stereo unspecified), the EC50 was > 29.9 µM (inactive).
With `O=C(CCN1CCC(O)(c2ccc(F)cc2)C1)c1ccc2c(c1)OCCO2` (stereo unspecified) the figure was > 29.9 µM (inactive).
With `Cc1ccc(C(=O)CCN2CCC(c3ccccc3)C2)cc1` (stereo unspecified) the figure was > 29.9 µM (inactive).
As for `NC(=O)CCN1C[C@H](c2ccccc2)[C@@H]2[C@H]1C1CCN2CC1`, the EC50 was > 29.9 µM (inactive).
Consider `CC1CN(CCC(=O)c2ccc3c(c2)OCCO3)CC1c1ccccc1` (stereo unspecified), for which the EC50 is > 29.9 µM (inactive).
The same measure for `O=C(CCN1C[C@@H](C(=O)O)[C@H](c2ccccc2)C1)NC1CCCC1`: > 29.9 µM (inactive); for `CC(CN1CCC(c2ccccc2)C1)C(=O)c1ccc2c(c1)OCCO2` (stereo unspecified): > 29.9 µM (inactive).
With `CC(CN1CCCC1Cc1ccccc1)C(=O)c1ccc2c(c1)OCCO2` (stereo unspecified) the figure was > 29.9 µM (inactive).
In the case of `O=C(CCN1CCC(c2ccccc2)C1)c1ccccc1` (stereo unspecified), the EC50 was > 29.9 µM (inactive).
With `O=C(CCN1C[C@@H](C(=O)O)[C@H](c2ccccc2)C1)NCc1cccs1`, the EC50 is > 29.9 µM (inactive).
With `O=C(CCN1C[C@@H](C(=O)O)[C@H](c2cccc(F)c2)C1)NC1CC1` the figure was > 29.9 µM (inactive).
